From patent US20060240535A1, “Carbonyl reductase from lactococcus lactis” (GEORGIA TECH RESEARCH CORPORATION, priority 2004, published 2006)

How the values were obtained:
[1] = molecular target: T1, carbonyl reductase from Lactococcus lactis (LL-CR) (Lactococcus lactis, UniProt Q9CJ60); assay: Purified CRLL activity in aqueous-organic tunable solvents (OATS); assay type: biochemical
Description: As LL-CR requires organic buffers for stability, such as HEPES or triethanolamine, runs were conducted in partially organic systems using a buffer system of 200 mM NH4CHO3 and 50 mM HEPES at pH 7.0.

[2] = test system: carbonyl reductase from Lactococcus lactis; assay: CRLL activity assay (decrease of NADPH absorption); substrate table of the isolated carbonyl reductase; assay type: biochemical; conditions: Substrate (20 mM); for spec. Act. (U/mg): activity per protein (0.37, 5.5 or 6.6 mg/mL)
From the text: The construct crll-pkk223-3 as well as crll-his-pkk223-3 were both transformed separately into the E. coli host strain HB101 for expression.

[3] = molecular target: T1, carbonyl reductase from Lactococcus lactis (LL-CR); assay: Oxidation of secondary alcohols to ketones by LL-CR (enantiospecificity); assay type: biochemical
[4] = molecular target: T1, carbonyl reductase from Lactococcus lactis (LL-CR); assay: Enzyme characterisation of purified LL-CR (KM, vmax, kcat, pH and T optima); assay type: biochemical
[5] = substrate: CC(=O)c1ccccc1; assay: as above; assay type: biochemical, Lactococcus lactis; conditions: other: pH 7.0 and 30° C.

CC(C)O [isopropanol]
specific activity of LL-CR on isopropanol ([1]; regeneration substrate, extends beyond 50% solvent content): 2-4 U/mg protein

CC(O)CO (centres unmarked) [1,2-propanediol]
Activity (U/mL) [2]: 0.025 U/mL
spec. Act. (U/mg) [2]: 0.06757 U/mg

CCOC(=O)CC(C)=O [ethyl acetoacetate]
Activity (U/mL) [2]: 7.07 U/mL
spec. Act. (U/mg) [2]: 19.11 U/mg

CC1CC(=O)CC(C)(C)C1 (centres unmarked) [3,3,5-trimethyl-CHone]
Activity (U/mL) [2]: 0.24 U/mL
spec. Act. (U/mg) [2]: 0.6486 U/mg

COC(=O)CC(C)=O [Methyl acetoacetate]
Activity (U/mL) [2]: 36.7 U/mL
spec. Act. (U/mg) [2]: 5.561 U/mg

O=Cc1ccccc1 [benzaldehyde]
Activity (U/mL) [2]: 8.3 U/mL
spec. Act. (U/mg) [2]: 1.258 U/mg

CCOCCO [ethoxyethanol]
Activity (U/mL) [2]: 0.0128 U/mL
spec. Act. (U/mg) [2]: 0.03459 U/mg

tetralone
Activity (U/mL) [2]: 3.2 U/mL
spec. Act. (U/mg) [2]: 0.4848 U/mg

CC(C)=O [acetone]
Activity (U/mL) [2]: 8.36 U/mL
spec. Act. (U/mg) [2]: 22.59 U/mg

O=C1CCCCC1 [cyclohexanone]
Activity (U/mL) [2]: 49 U/mL
spec. Act. (U/mg) [2]: 7.424 U/mg

CC(=O)c1ccccc1 [acetophenone]
Activity (U/mL) [2]: 53 U/mL
spec. Act. (U/mg) [2]: 8.03 U/mg

CCCC=O [butyraldehyde]
Activity (U/mL) [2]: 12.7 U/mL
spec. Act. (U/mg) [2]: 34.32 U/mg

CC(=O)C(C)(C)C [pinacolone]
Activity (U/mL) [2]: 22.5 U/mL
spec. Act. (U/mg) [2]: 3.409 U/mg

CCOC(=O)C(C)=O [ethyl pyruvate]
Activity (U/mL) [2]: 16.32 U/mL
spec. Act. (U/mg) [2]: 2.473 U/mg

CC(=O)CC(C)=O [2,4-pentane-dione]
Activity (U/mL) [2]: 90.77 U/mL
spec. Act. (U/mg) [2]: 13.75 U/mg

O=C1CCc2ccccc21 [1-indanone]
spec. Act. (U/mg) [2]: 0 U/mg

COC(=O)C(=O)c1ccccc1 [Methyl benzoylformate]
Activity (U/mL) [2]: 3.86 U/mL
spec. Act. (U/mg) [2]: 0.5848 U/mg

CCCCCC=O [hexylaldehyde]
Activity (U/mL) [2]: 45.82 U/mL
spec. Act. (U/mg) [2]: 6.942 U/mg

O=C(O)C(=O)c1ccccc1 [benzoylformate]
Activity (U/mL) [2]: 0 U/mL
spec. Act. (U/mg) [2]: 0 U/mg

CCOC(=O)C(=O)c1ccccc1 [ethyl benzoylformate]
Activity (U/mL) [2]: 11.25 U/mL
spec. Act. (U/mg) [2]: 1.705 U/mg

CC(=O)C(C)C [3-methyl-2-butanone]
Activity (U/mL) [2]: 12.06 U/mL
spec. Act. (U/mg) [2]: 32.59 U/mg

CCCC[C@@H](C)O [(R)-2-hexanol]
oxidation of secondary alcohol to the respective ketone [3]: can oxidize

CC(=O)COc1ccccc1 [Phenoxy-2-propanone]
Activity (U/mL) [2]: 10.61 U/mL
spec. Act. (U/mg) [2]: 28.68 U/mg

CCOC(=O)CC(=O)c1ccccc1 [ethyl benzoylacetate]
Activity (U/mL) [2]: 4.98 U/mL
spec. Act. (U/mg) [2]: 13.46 U/mg

O=C1CCCC2CCCCC12 (centres unmarked) [1-decalone]
Activity (U/mL) [2]: 5.29 U/mL
spec. Act. (U/mg) [2]: 14.3 U/mg

C[C@@H](O)c1ccccc1 [(R)-1-phenyl-1-ethanol]
oxidation of secondary alcohol to the respective ketone [3]: can oxidize

CCCCC(C)=O [2-hexanone]
Activity (U/mL) [2]: 1.28 U/mL
spec. Act. (U/mg) [2]: 3.459 U/mg

CCCCCCCC=O [octylaldehyde]
Activity (U/mL) [2]: 10.93 U/mL
spec. Act. (U/mg) [2]: 1.656 U/mg

CCCC(=O)CC(=O)OCC [ethyl 3-oxohexanoate]
Activity (U/mL) [2]: 9.64 U/mL
spec. Act. (U/mg) [2]: 26.05 U/mg

CCC(=O)c1ccccc1 [propiophenone]
Activity (U/mL) [2]: 2.2 U/mL
spec. Act. (U/mg) [2]: 0.4 U/mg

CCC=O [propionaldehyde]
Activity (U/mL) [2]: 69 U/mL
spec. Act. (U/mg) [2]: 10.45 U/mg

CC(=O)CO [hydroxyacetone]
Activity (U/mL) [2]: 0.77 U/mL
spec. Act. (U/mg) [2]: 2.081 U/mg

CC(=O)CCC(C)=O [acetonylacetone]
Activity (U/mL) [2]: 57.88 U/mL
spec. Act. (U/mg) [2]: 8.77 U/mg

OCCOCCO [diethyleneglycol]
Activity (U/mL) [2]: 0.38 U/mL
spec. Act. (U/mg) [2]: 1.027 U/mg

CC1(C)COC(=O)C1=O [ketopantolactone]
Activity (U/mL) [2]: 9.49 U/mL
spec. Act. (U/mg) [2]: 25.65 U/mg

t-butylcyclohexanone
Activity (U/mL) [2]: 0 U/mL
spec. Act. (U/mg) [2]: 0 U/mg

CC(=O)CC(C)C [4-methyl-2-pentanone]
Activity (U/mL) [2]: 21.7 U/mL
spec. Act. (U/mg) [2]: 3.288 U/mg

B1: carbonyl reductase from Lactococcus lactis (LL-CR) (Lactococcus lactis subsp. lactis Il1403) (protein)
chain: MKTLITGENKGIGFALAQNLGHRGYEVLVGARNETRGQEAVEKLKAEGITAKFVKVDLDDLNQLTSLSALTDIDLLINNAGISGNIHSDKGHLDMEKSAFDYSTTDLEETIKTNFLGTHAVIKELLPHSLTENAKIINITVPVSQEYWMPLAYVTSKAAQNAMTFAFGHQFKKDKSKKQIFAVMPGAVATDLNGAKVGDSPFVKSPEETAQMISKFIFDDKNHNAQIINFDGTIYDNYEPGLRNKVIKDVAKNGLKRKFKK
T optimum [4]: 40 °C
pH optimum [4]: 6.5
calculated kcat ([4]; pH 7.0 and 30° C.): 24 s⁻¹
vmax ([4]; pH 7.0 and 30° C.): 80 U/mg pure protein
organic solvent content at which enzyme is active ([1]; 200 mM NH4HCO3/50 mM HEPES, pH 7.0, 30° C.): up to 50%
organic solvent content at which stable ([1]; acetonitrile, dioxane, or tetrahydrofuran): below 60%
Km [5]: 500 µM
